Experiments:
[1] = test system: Puccinia recondita f. Sp. Triticil; assay: Puccinia recondita f. sp. tritici / wheat / leaf disc curative (brown rust); assay type: in vivo, Puccinia recondita f. sp. tritici on wheat cv. Kanzler; settings: foliar, 200 ppm in the applied formulation, applied 1 day after inoculation, assessed 6 to 8 days after application, vs untreated control leaf disks, read-out: disease control
Method: (§1) Leaf disks or leaf segments of various plant species are cut from plants grown in a greenhouse. The cut leaf disks or segments are placed in multiwell plates (24-well format) onto water agar. The leaf disks are sprayed with a test solution before (preventative) or after (curative) inoculation. Compounds to be tested are prepared as DMSO solutions (max. 10 mg/ml) which are diluted to the appropriate concentration with 0.025% Tween20 just before spraying. The inoculated leaf disks or segments are incubated under defined conditions (temperature, relative humidity, light, etc.) according to the respective test system. A single evaluation of disease level is carried out 3 to 14 days after inoculation, depending on the pathosystem. Percent disease control relative to the untreated check leaf disks or segments is then calculated.
Wheat leaf segments cv. Kanzler are placed on agar in multiwell plates (24-well format). The leaf segments are then inoculated with a spore suspension of the fungus. Plates were stored in darkness at 19° C. and 75% relative humidity. The formulated test compound diluted in water was applied 1 day after inoculation. The leaf segments were incubated at 19° C. and 75% relative humidity under a light regime of 12 hours light/12 hours darkness in a climate cabinet and the activity of a compound was assessed as percent disease control compared to untreated when an appropriate level of disease damage appears in untreated check leaf segments (6 to 8 days after application).
(§2) The following compounds at 200 ppm in the applied formulation give at least 80% disease control in this test when compared to untreated control leaf disks under the same conditions, which show extensive disease development.

[2] = test system: Phakopsora pachyrhizi; assay: Phakopsora pachyrhizi / soybean / leaf disc preventative (Asian soybean rust); assay type: in vivo, Phakopsora pachyrhizi on soybean; settings: foliar, 200 ppm in the applied formulation, inoculated one day after application, assessed 12 to 14 days after application, vs untreated control leaf disks, read-out: disease control
Method: as §1
Soybean leaf disks are placed on water agar in multiwell plates (24-well format) and sprayed with the formulated test compound diluted in water. One day after application leaf discs are inoculated by spraying a spore suspension on the lower leaf surface. After an incubation period in a climate cabinet of 24-36 hours in darkness at 20° C. and 75% rh leaf disc are kept at 20° C. with 12 h light/day and 75% rh. The activity of a compound is assessed as percent disease control compared to untreated when an appropriate level of disease damage appears in untreated check leaf disks (12 to 14 days after application).
as §2

[3] = test system: Puccinia recondita f. Sp. Tritici; assay: Puccinia recondita f. sp. tritici / wheat / leaf disc preventative (brown rust); assay type: in vivo, Puccinia recondita f. sp. tritici on wheat cv. Kanzler; settings: foliar, 200 ppm in the applied formulation, inoculated 1 day after application, assessed 7 to 9 days after application, vs untreated control leaf disks, read-out: disease control
Method: as §1, with “calculated. Wheat leaf segments cv. Kanzler were placed on agar in multiwell plates (24-well format) and sprayed with the formulated test compound diluted in water. The leaf disks were inoculated with a spore suspension of the fungus 1 day after application. The inoculated leaf segments were incubated at 19′C and 75% relative humidity (rh) under a light regime of 12 hours light/12 hours darkness in a climate cabinet and the activity of a compound was assessed as percent disease control compared to untreated when an appropriate level of disease damage appears in untreated check leaf segments (7 to 9 days after application). The following compounds at 200 ppm in the applied formulation give at least 80% disease control in this test when compared to untreated control leaf disks under the same conditions, which show extensive disease development.” for “calculated.”

[4] = test system: Glomerella Lacenarium (Colletotrichum lacenarium); assay: Glomerella lagenarium (Colletotrichum lagenarium) liquid culture / cucumber / preventative (anthracnose); assay type: cell-based; settings: 20 ppm in the applied formulation, liquid culture in PDB, 24° C., inhibition of growth measured photometrically 3 to 4 days after application, vs untreated control, read-out: disease control
Method: Mycelia fragments or conidia suspensions of a fungus prepared either freshly from liquid cultures of the fungus or from cryogenic storage, are directly mixed into nutrient broth. DMSO solutions of the test compound (max. 10 mg/ml) are diluted with 0.025% Tween20 by a factor of 50 and 10 μl of this solution is pipetted into a microtiter plate (96-well format). The nutrient broth containing the fungal spores/mycelia fragments is then added to give an end concentration of the tested compound. The test plates are incubated in the dark at 24° C. and 96% relative humidity. The inhibition of fungal growth is determined photometrically after 2 to 7 days, depending on the pathosystem, and percent antifungal activity relative to the untreated check is calculated.
Conidia of the fungus from cryogenic storage are directly mixed into nutrient broth (PDB—potato dextrose broth). After placing a (DMSO) solution of test compound into a microtiter plate (96-well format), the nutrient broth containing the fungal spores is added. The test plates are incubated at 24° C. and the inhibition of growth is measured photometrically 3 to 4 days after application.
The following compounds at 20 ppm in the applied formulation give at least 80% disease control in this test when compared to untreated control under the same conditions, which show extensive disease development.

O=C(CC1CCCC1)NCc1ccc(-c2noc(C(F)(F)F)n2)cc1 [Compound 1.7, 2-cyclopentyl-N-[[4-[5-(trifluoromethyl)-1,2,4-oxadiazol-3-yl]phenyl]methyl]acetamide]
≥ 80%: pest or weed control at 200 ppm [1] | pest or weed control at 200 ppm [2] | pest or weed control at 200 ppm [3] | inhibition of growth at 20 ppm [4]

O=C(NCc1ccc(-c2noc(C(F)(F)F)n2)cc1)C1CCCC1 [Compound 1.16, N-[[4-[5-(trifluoromethyl)-1,2,4-oxadiazol-3-yl]phenyl]methyl] cyclopentanecarboxamide]
≥ 80%: pest or weed control at 200 ppm [1] | pest or weed control at 200 ppm [2] | pest or weed control at 200 ppm [3] | inhibition of growth at 20 ppm [4]

CC1(C(=O)NCc2ccc(-c3noc(C(F)(F)F)n3)cc2)CCCCC1 [Compound 1.21, 1-methyl-N-[[4-[5-(trifluoromethyl)-1,2,4-oxadiazol-3-yl]phenyl]methyl] cyclohexanecarboxamide]
≥ 80%: pest or weed control at 200 ppm [1] | pest or weed control at 200 ppm [2] | pest or weed control at 200 ppm [3] | inhibition of growth at 20 ppm [4]

O=C(NCc1ccc(-c2noc(C(F)(F)F)n2)cc1)C1CCC1 [Compound 1.22, N-[[4-[5-(trifluoromethyl)-1,2,4-oxadiazol-3-yl]phenyl]methyl] cyclobutanecarboxamide]
≥ 80%: pest or weed control at 200 ppm [1] | pest or weed control at 200 ppm [2] | pest or weed control at 200 ppm [3] | inhibition of growth at 20 ppm [4]

CC1CC1C(=O)NCc1ccc(-c2noc(C(F)(F)F)n2)cc1 (stereo not shown) [Compound 1.24, 2-methyl-N-[[4-[5-(trifluoromethyl)-1,2,4-oxadiazol-3-yl]phenyl]methyl] cyclopropanecarboxamide]
≥ 80%: pest or weed control at 200 ppm [1] | pest or weed control at 200 ppm [2] | pest or weed control at 200 ppm [3] | inhibition of growth at 20 ppm [4]

CC1(C(=O)NCc2ccc(-c3noc(C(F)(F)F)n3)cc2)CC1 [Compound 1.25, 1-methyl-N-[[4-[5-(trifluoromethyl)-1,2,4-oxadiazol-3-yl]phenyl]methyl] cyclopropanecarboxamide]
≥ 80%: pest or weed control at 200 ppm [1] | pest or weed control at 200 ppm [2] | pest or weed control at 200 ppm [3] | inhibition of growth at 20 ppm [4]

CC1(C)CC1C(=O)NCc1ccc(-c2noc(C(F)(F)F)n2)cc1 (stereo not shown) [Compound 1.28, 2,2-dimethyl-N-[[4-[5-(trifluoromethyl)-1,2,4-oxadiazol-3-yl]phenyl]methyl] cyclopropanecarboxamide]
≥ 80%: pest or weed control at 200 ppm [1] | pest or weed control at 200 ppm [2] | pest or weed control at 200 ppm [3] | inhibition of growth at 20 ppm [4]

O=C(NCc1ccc(-c2noc(C(F)(F)F)n2)cc1F)C1CCCO1 (stereo not shown) [Compound 1.49, N-[[2-fluoro-4-[5-(trifluoromethyl)-1,2,4-oxadiazol-3-yl]phenyl]methyl]tetrahydrofuran-2-carboxamide]
≥ 80%: pest or weed control at 200 ppm [1] | pest or weed control at 200 ppm [2] | pest or weed control at 200 ppm [3] | inhibition of growth at 20 ppm [4]

O=C(CC1CC1)NCc1ccc(-c2noc(C(F)(F)F)n2)cc1 [Compound 1.53, 2-cyclopropyl-N-[[4-[5-(trifluoromethyl)-1,2,4-oxadiazol-3-yl]phenyl]methyl]acetamide]
≥ 80%: pest or weed control at 200 ppm [1] | pest or weed control at 200 ppm [2] | pest or weed control at 200 ppm [3] | inhibition of growth at 20 ppm [4]

CC1(C(=O)NCc2ccc(-c3noc(C(F)(F)F)n3)cc2)COC1 [Compound 1.54, 3-methyl-N-[[4-[5-(trifluoromethyl)-1,2,4-oxadiazol-3-yl]phenyl]methyl] oxetane-3-carboxamide]
≥ 80%: pest or weed control at 200 ppm [1] | pest or weed control at 200 ppm [2] | pest or weed control at 200 ppm [3] | inhibition of growth at 20 ppm [4]

O=C(NCc1ccc(-c2noc(C(F)(F)F)n2)cc1F)C1CC1(F)F (stereo not shown) [Compound 1.61, 2,2-difluoro-N-[[2-fluoro-4-[5-(trifluoromethyl)-1,2,4-oxadiazol-3-yl]phenyl]methyl] cyclopropanecarboxamide]
≥ 80%: pest or weed control at 200 ppm [1] | pest or weed control at 200 ppm [2] | pest or weed control at 200 ppm [3] | inhibition of growth at 20 ppm [4]

O=C(CC1CC1)NCc1ccc(-c2noc(C(F)(F)F)n2)cc1F [Compound 1.62, 2-cyclopropyl-N-[[2-fluoro-4-[5-(trifluoromethyl)-1,2,4-oxadiazol-3-yl]phenyl]methyl] acetamide]
≥ 80%: pest or weed control at 200 ppm [1] | pest or weed control at 200 ppm [2] | pest or weed control at 200 ppm [3] | inhibition of growth at 20 ppm [4]

CC1CC1C(=O)NCc1ccc(-c2noc(C(F)(F)F)n2)c(F)c1 (stereo not shown) [Compound 1.64, N-[[3-fluoro-4-[5-(trifluoromethyl)-1,2,4-oxadiazol-3-yl]phenyl]methyl]-2-methyl-cyclopropanecarboxamide]
≥ 80%: pest or weed control at 200 ppm [1] | pest or weed control at 200 ppm [2] | pest or weed control at 200 ppm [3] | inhibition of growth at 20 ppm [4]

CC1(C(=O)NCc2ccc(-c3noc(C(F)(F)F)n3)c(F)c2)CC1 [Compound 1.65, N-[[3-fluoro-4-[5-(trifluoromethyl)-1,2,4-oxadiazol-3-yl]phenyl]methyl]-1-methyl-cyclopropanecarboxamide]
≥ 80%: pest or weed control at 200 ppm [1] | pest or weed control at 200 ppm [2] | pest or weed control at 200 ppm [3] | inhibition of growth at 20 ppm [4]

CC1CC1C(=O)NCc1ccc(-c2noc(C(F)(F)F)n2)cc1F (stereo not shown) [Compound 1.66, N-[[2-fluoro-4-[5-(trifluoromethyl)-1,2,4-oxadiazol-3-yl]phenyl]methyl]-2-methyl-cyclopropanecarboxamide]
≥ 80%: pest or weed control at 200 ppm [1] | pest or weed control at 200 ppm [2] | pest or weed control at 200 ppm [3] | inhibition of growth at 20 ppm [4]

CC1(C(=O)NCc2ccc(-c3noc(C(F)(F)F)n3)cc2F)CC1 [Compound 1.67, N-[[2-fluoro-4-[5-(trifluoromethyl)-1,2,4-oxadiazol-3-yl]phenyl]methyl]-1-methyl-cyclopropanecarboxamide]
≥ 80%: pest or weed control at 200 ppm [1] | pest or weed control at 200 ppm [2] | pest or weed control at 200 ppm [3] | inhibition of growth at 20 ppm [4]

CC1(C(=O)NCCc2ccc(-c3noc(C(F)(F)F)n3)cc2)CC1 [Compound 1.103, 1-methyl-N-[2-[4-[5-(trifluoromethyl)-1,2,4-oxadiazol-3-yl]phenyl]ethyl] cyclopropanecarboxamide]
≥ 80%: pest or weed control at 200 ppm [2] | pest or weed control at 200 ppm [3] | inhibition of growth at 20 ppm [4]
